From PMC4596862, “Stereochemical Control in the Still-Wittig Rearrangement Synthesis of Cyclohexyl (Z)-Alkene Inhibitors of Pin1” (PLoS ONE, 2015)

Target: Pin1 (Homo sapiens, UniProt Q13526)
Experiment: protease-coupled PPIase assay (pNA release at […] nm, […]°C)
Type: biochemical

Chain of Pin1 (Q13526 whole entry): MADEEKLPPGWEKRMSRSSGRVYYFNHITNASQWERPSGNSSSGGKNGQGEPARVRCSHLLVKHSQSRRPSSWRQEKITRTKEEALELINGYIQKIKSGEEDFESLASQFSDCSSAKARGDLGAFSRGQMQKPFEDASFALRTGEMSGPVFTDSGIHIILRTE

Row | SMILES | IC50
1 | CC(=O)N[C@H](/C=C1/CCCC[C@@H]1C(=O)NCCc1ccc2ccccc2c1)COP(=O)(O)O [(2R,5S)-1, Ac–L-pSer–Ψ[(Z)CH = C]-D-Pip–NEA] | 52 ± 4 µM
2 | CC(=O)N[C@@H](/C=C1/CCCC[C@H]1C(=O)NCCc1ccc2ccccc2c1)COP(=O)(O)O [(2S,5R)-1, Ac–D-pSer–Ψ[(Z)CH = C]–L-Pip–2-(2-naphthyl)ethylamine (NEA)] | 85 ± 10 µM
3 | CC(=O)N[C@@H](/C=C1/CCCC[C@@H]1C(=O)NCCc1ccc2ccccc2c1)COP(=O)(O)O [(2S,5S)-1, (2S,5S)-Ac–pSer–Ψ[(Z)CH = C]–pipecolyl(Pip)–2-(2-naphthyl)ethylamine 1] | 140 ± 20 µM
